Laboratory results from patent US10413529B2, “Methods of inhibiting cataracts and presbyopia” (UNIVERSITY OF MASSACHUSETTS, priority 2013, dated 2019).

Assays:
γS-crystallin = biological target: T1, γS-crystallin (Homo sapiens, UniProt P22914); assay: Dynamic light scattering (DLS) of γS-crystallin, hydrodynamic radius of monomer and aggregate; format: biochemical; conditions: γS modified with the agent
T1 construct: 6xHis (N); made in house; host or cells: M15pRep E. coli (pQe1 plasmid from King Labs, MIT)
T1 sequence (P22914 1-178): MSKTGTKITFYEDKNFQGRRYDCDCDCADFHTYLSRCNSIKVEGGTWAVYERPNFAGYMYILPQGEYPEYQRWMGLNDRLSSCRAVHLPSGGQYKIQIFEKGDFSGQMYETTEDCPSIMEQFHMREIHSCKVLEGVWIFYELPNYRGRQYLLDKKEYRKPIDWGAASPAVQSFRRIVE
Experimental: (§1) The scattering wave vector is defined as q=4πn sin (θ/2)/λ, where θ is the scattering angle, and λ=514.5, the wavelength of the argon laser in vacuum, and n is 1.33, the refractive index of water. The temperature of the sample was held at constant temperature of 4 to 37±0.1° C. by a circulating water bath. The correlation function was analyzed using CONTIN analysis [NT] times for the correlation functions at measured angles. […] The delay times (τ) were converted to Γ and graphed versus q^2. The slope of the fitted line is the diffusion coefficient (D). […] All solutions were filtered with 0.22 μm hydrophobic PVDF membranes (Fisher Scientific) into 10 mm diameter borosilicate glass tubes and sealed. Solutions were allowed to equilibrate for thirty minutes prior to measuring light scattering. […] The pH and salt concentration were adjusted via overnight dialysis at 4° C. and their final concentration adjusted to 1.0 g/L. […] The scattering wave vector is defined as q=4πn sin (θ/2)/λ, where θ is the scattering angle, and λ=514.5, the wavelength of the argon laser in vacuum, and n is 1.33, the refractive index of water. The temperature of the sample was held at constant temperature of 4 to 37±0.1° C. by a circulating water bath. The correlation function was analyzed using CONTIN analysis [NT] times for the correlation functions at measured angles. […] The delay times (τ) were converted to Γ and graphed versus q^2. The slope of the fitted line is the diffusion coefficient (D). […] All solutions were filtered with 0.22 μm hydrophobic PVDF membranes (Fisher Scientific) into 10 mm diameter borosilicate glass tubes and sealed. Solutions were allowed to equilibrate for thirty minutes prior to measuring light scattering.

γD-crystallin = biological target: T2, γD-crystallin (Homo sapiens, UniProt P07320); assay: Dynamic light scattering (DLS) of γD-crystallin, hydrodynamic radius of monomer and aggregate; format: biochemical; conditions: γD modified with the agent
T2 construct: 6xHis (N); made in house; host or cells: M15pRep E. coli (pQe1 plasmid from King Labs, MIT)
T2 sequence (P07320 1-174): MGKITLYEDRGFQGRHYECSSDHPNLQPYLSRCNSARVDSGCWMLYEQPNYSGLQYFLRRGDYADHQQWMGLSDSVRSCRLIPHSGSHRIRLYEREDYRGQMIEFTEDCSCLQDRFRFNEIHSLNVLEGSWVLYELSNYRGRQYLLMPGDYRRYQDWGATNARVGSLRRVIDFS
Experimental: as §1

[1] = fast mode (monomer, first Rh column), 22° C.
[2] = fast mode (monomer, first Rh column), 22° C., listed as CAPEG

NCCOCCOCCOCCOCCC(=O)O [CAPEG4]
Rh (γS-crystallin; fast mode (monomer), 37° C.): 3 nm | Rh (γS-crystallin; fast mode (monomer), 37° C., listed as CAPEG): 2.9 nm | Rh (γS-crystallin; [1]): 2.8 nm | Rh (γS-crystallin; [2]): 2.9 nm | Rh (γD-crystallin; fast mode (monomer), 37° C.): 2.8 nm | Rh (γD-crystallin; [1]): 2.9 nm | Rh (γD-crystallin; [2]): 2.8 nm
